Experimental data published in PMC9952435, “Characterization of Two Novel AmpC Beta-Lactamases from the Emerging Opportunistic Pathogen, Cedecea neteri” (Antibiotics, 2023).
Where two headings read alike, the source gives them in different places.

How the values were obtained:
[1] = tested on: rAmpC CNE-2 from C. neteri ATCC 33855; type: biochemical; details: for Km: Ki or Km,apparent, 200 µM nitrocefin reporter, 500 nM rAmpC, all standard deviations ≤15%
[2] = tested on: rAmpC CNE-2 from C. neteri ATCC 33855; type: biochemical; details: nitrocefin as substrate; 500 nM rAmpC, pH 7, 30 °C

Structure (SMILES) | Km [1] | other results
CC1(C)S[C@@H]2[C@H](NC(=O)[C@H](N)c3ccccc3)C(=O)N2[C@H]1C(=O)O [Ampicillin, ampicillin] | 12 µM | 
Cc1nnc(SCC2=C(C(=O)O)N3C(=O)[C@@H](NC(=O)Cn4cnnn4)[C@H]3SC2)s1 [Cefazolin, cefazolin] | 100 µM | 
CO[C@@]1(NC(=O)Cc2cccs2)C(=O)N2C(C(=O)O)=C(COC(N)=O)CS[C@@H]21 [Cefoxitin, cefoxitin] | 54 µM | Km, fold higher than for CDA-1 from C. davisae ([1]; CNE-2 compared with CDA-1 (ref 13)): 100 fold
CO/N=C(\C(=O)N[C@@H]1C(=O)N2C(C(=O)O)=C(COC(N)=O)CS[C@H]12)c1ccco1 [Cefuroxime, cefuroxime] | 4 µM | 
CC1=C(C(=O)O)N2C(=O)[C@@H](NC(=O)[C@H](N)c3ccccc3)[C@H]2SC1 [Cephalexin, cephalexin] | 5 µM | 
C[C@@H](O)[C@H]1C(=O)N2C(C(=O)O)=C(SCCN=CN)C[C@H]12 [Imipenem, imipenem] | 2 µM | Km ([1]; listed as imipenem): ~2 µM
CC1(C)S[C@@H]2[C@H](NC(=O)Cc3ccccc3)C(=O)N2[C@H]1C(=O)O [Penicillin, penicillin] | 11 µM | 
O=C(Cc1cccs1)N[C@@H]1C(=O)N2C(C(=O)O)=C(/C=C/c3ccc([N+](=O)[O-])cc3[N+](=O)[O-])CS[C@H]12 [nitrocefin] |  | Km [2]: 133 ± 11 µM; kcat [2]: 3.13 ± 0.27 s⁻¹
